Test [1] concerns the target T1, Alpha-2A adrenergic receptor (Homo sapiens, UniProt P08913).
T1 sequence (P08913 whole entry): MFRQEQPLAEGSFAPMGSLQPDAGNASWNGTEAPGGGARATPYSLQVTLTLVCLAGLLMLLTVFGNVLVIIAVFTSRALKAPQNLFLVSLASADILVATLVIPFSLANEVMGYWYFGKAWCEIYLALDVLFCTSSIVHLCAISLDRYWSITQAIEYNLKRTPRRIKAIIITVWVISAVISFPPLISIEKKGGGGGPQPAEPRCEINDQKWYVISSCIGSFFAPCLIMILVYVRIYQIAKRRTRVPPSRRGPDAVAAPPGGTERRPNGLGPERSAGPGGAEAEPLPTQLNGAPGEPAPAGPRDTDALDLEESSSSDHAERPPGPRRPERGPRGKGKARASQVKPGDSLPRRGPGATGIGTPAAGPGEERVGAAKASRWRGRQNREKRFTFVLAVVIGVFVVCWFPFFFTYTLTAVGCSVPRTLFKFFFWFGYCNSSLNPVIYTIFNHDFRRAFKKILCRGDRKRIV
In kind it is functional, cell-based.

In test [2] the target is Kappa-type opioid receptor (Homo sapiens, UniProt P41145).
Test [3] concerns the target Voltage-gated inwardly rectifying potassium channel KCNH2 (Homo sapiens, UniProt Q12809). In kind it is functional.

Molecules are shown by their SMILES. Some results are limits rather than exact numbers.
Note: assay procedure not described here.

Sequence of Kappa-type opioid receptor (P41145 whole entry): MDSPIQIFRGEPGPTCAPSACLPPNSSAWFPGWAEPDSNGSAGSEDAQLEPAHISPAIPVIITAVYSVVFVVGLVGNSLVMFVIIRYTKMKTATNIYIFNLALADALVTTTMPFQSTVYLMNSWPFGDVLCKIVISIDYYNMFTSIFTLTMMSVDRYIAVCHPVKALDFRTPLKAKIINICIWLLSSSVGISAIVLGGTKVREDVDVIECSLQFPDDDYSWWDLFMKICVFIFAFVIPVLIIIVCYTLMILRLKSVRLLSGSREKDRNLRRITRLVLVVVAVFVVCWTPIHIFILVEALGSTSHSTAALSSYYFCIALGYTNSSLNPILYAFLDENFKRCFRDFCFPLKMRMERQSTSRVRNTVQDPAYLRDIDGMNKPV
Sequence of Voltage-gated inwardly rectifying potassium channel KCNH2 (Q12809 whole entry): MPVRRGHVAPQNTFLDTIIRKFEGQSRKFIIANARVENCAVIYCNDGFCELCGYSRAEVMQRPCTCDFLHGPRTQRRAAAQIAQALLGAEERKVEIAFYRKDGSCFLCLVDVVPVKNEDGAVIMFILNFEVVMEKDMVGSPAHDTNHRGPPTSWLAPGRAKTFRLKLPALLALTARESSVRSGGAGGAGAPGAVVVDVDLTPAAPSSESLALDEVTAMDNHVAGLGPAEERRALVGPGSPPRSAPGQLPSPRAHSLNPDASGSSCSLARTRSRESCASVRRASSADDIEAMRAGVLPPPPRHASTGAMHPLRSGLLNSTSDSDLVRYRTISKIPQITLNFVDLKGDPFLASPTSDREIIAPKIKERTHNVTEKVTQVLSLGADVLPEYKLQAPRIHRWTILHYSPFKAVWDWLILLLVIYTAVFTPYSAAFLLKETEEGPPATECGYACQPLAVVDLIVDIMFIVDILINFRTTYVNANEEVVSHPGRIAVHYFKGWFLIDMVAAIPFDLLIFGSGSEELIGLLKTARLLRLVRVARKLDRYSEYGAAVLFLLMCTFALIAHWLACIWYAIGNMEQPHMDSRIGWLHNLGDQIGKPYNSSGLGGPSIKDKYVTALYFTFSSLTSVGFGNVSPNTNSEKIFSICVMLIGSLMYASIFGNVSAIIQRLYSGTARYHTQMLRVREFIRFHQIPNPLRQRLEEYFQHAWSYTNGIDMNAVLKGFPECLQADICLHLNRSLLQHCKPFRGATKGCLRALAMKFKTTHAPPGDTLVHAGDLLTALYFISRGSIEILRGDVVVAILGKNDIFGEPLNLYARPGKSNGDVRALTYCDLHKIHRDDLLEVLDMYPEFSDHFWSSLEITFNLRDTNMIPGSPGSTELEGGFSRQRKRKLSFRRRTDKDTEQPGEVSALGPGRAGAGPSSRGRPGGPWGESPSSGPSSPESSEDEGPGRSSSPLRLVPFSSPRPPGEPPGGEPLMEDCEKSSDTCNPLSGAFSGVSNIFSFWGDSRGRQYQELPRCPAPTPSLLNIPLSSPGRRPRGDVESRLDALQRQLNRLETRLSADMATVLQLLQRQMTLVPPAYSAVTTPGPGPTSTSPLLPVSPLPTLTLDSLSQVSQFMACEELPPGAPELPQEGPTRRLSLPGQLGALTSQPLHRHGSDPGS

One may read the AC50 as the concentration giving half of the maximal activity seen. High values mean activity only at high concentration, low ones activity at low concentration. Consider `O=C1c2cccc3c2[C@H](CCC3)CN1[C@@H]1CN2CCC1CC2` [PALONOSETRON], for which the half-maximal activity concentration (AC50) in test [1] is more than 30 µM; in test [2], more than 30 µM; in test [3] it was 0.89 µM.

On to `Cc1cccc(C)c1NC(=O)CC12CCCN1CCC2` [PILSICAINIDE], for which the AC50 in test [1] and in test [2] was more than 30 µM in each case.

For the compound `CC(C)c1cccc(C(C)C)c1O` [PROPOFOL], in test [1], the AC50 is more than 30 µM.

Regarding `C[N+]1(C)CCC(=C(c2ccccc2)c2ccccc2)CC1`, the AC50 in test [1] was more than 10 µM; in test [2] it was more than 10 µM; in test [3], 0.187 µM.

On to `CC(C)(Oc1ccc(CCNC(=O)c2ccc(Cl)cc2)cc1)C(=O)O` [BEZAFIBRATE], for which the AC50 was more than 10 µM in test [1], more than 10 µM in test [2] and more than 30 µM in test [3].

For `CCOC(=O)c1c(CSc2ccccc2)n(C)c2cc(Br)c(O)c(CN(C)C)c12` [UMIFENOVIR], the AC50 is more than 30 µM in test [1], more than 30 µM in test [2] and 0.61 µM in test [3].

For `Cc1ccccc1N1C(=O)c2cc(S(N)(=O)=O)c(Cl)cc2NC1C` (stereo not drawn) [METOLAZONE], the AC50 in test [1] is more than 10 µM; in test [2] it was more than 10 µM; in test [3], more than 30 µM.

For the compound `C[C@]12C=CC(=O)C=C1CC[C@@H]1[C@@H]2CC[C@]2(C)OC(=O)CC[C@@H]12` [TESTOLACTONE], the half-maximal activity concentration (AC50) is more than 30 µM in test [1], more than 10 µM in test [2] and more than 30 µM in test [3].

With `COC(=O)C1=C(C)NC(C)=C(C(=O)OCCN2CCN(C(c3ccccc3)c3ccccc3)CC2)C1c1cccc([N+](=O)[O-])c1` (stereo not drawn) [MANIDIPINE 6300], the AC50 in test [1] is more than 30 µM; in test [2] it was 7.9 µM; in test [3], 0.82 µM.

Regarding `COc1ccc([C@@H]2CC(=O)c3c(O)cc(O)cc3O2)cc1O` [HESPERETIN], the results for the AC50 in test [1], in test [2] and in test [3] were more than 10 µM, more than 10 µM and more than 30 µM, respectively.

As for `CCCN1CC(NS(=O)(=O)N(CC)CC)CC2Cc3c(O)cccc3CC21` (stereo not drawn) [QUINAGOLIDE], the concentration at half-maximal activity (AC50) was more than 30 µM in test [1], 1.7 µM in test [2] and 6.5 µM in test [3].

Turning to `O=C1c2ccccc2C(=O)C1c1ccccc1` [PHENINDIONE], the AC50 was more than 10 µM in test [1], more than 10 µM in test [2] and more than 30 µM in test [3].

For `C=C1c2cccc(O)c2C(=O)C2=C(O)[C@]3(O)C(=O)C(C(N)=O)=C(O)[C@@H](N(C)C)[C@@H]3[C@@H](O)[C@H]12` [METHACYCLINE], the half-maximal activity concentration (AC50) in test [1] was more than 10 µM; in test [2], more than 10 µM; in test [3] it was more than 30 µM.

As to `CCC1(c2ccc(N)cc2)CCC(=O)NC1=O` (stereo not drawn) [AMINOGLUTETHIMIDE], the half-maximal activity concentration (AC50) in test [1], in test [2] and in test [3] was more than 30 µM in each case.

With `CN(Cc1cnc2nc(N)nc(N)c2n1)c1ccc(C(=O)N[C@@H](CCC(=O)O)C(=O)O)cc1` [METHOTREXATE], the concentration at half-maximal activity (AC50) in test [1] is more than 10 µM; in test [2], more than 10 µM; in test [3], more than 30 µM.

Turning to `OC[C@H]1O[C@@H](n2cnc3c2NC=NC[C@H]3O)C[C@@H]1O` [PENTOSTATIN], the AC50 in test [1], in test [2] and in test [3] was more than 30 µM each time.

Regarding `C[C@]12CCC(=O)C[C@@H]1CC[C@@H]1[C@@H]2CC[C@]2(C)[C@@H](O)CC[C@@H]12` [STANOLONE], the half-maximal activity concentration (AC50) in test [1], in test [2] and in test [3] was more than 30 µM in each case.

As for `C[N+](C)(C)CCOP(=O)([O-])OC[C@H](O)CO`, the concentration at half-maximal activity (AC50) in test [1], in test [2] and in test [3] was more than 30 µM each time.

For the compound `CC1=C(C(=O)OC(C)C)C(c2cccc([N+](=O)[O-])c2)C(C(=O)OC2CN(C(c3ccccc3)c3ccccc3)C2)=C(N)N1` (stereo not drawn) [AZELNIDIPINE], the concentration at half-maximal activity (AC50) in test [1], in test [2] and in test [3] was more than 30 µM each time.

For `CN[C@]1(c2ccccc2Cl)CCCCC1=O` [ESKETAMINE], the AC50 was more than 30 µM in test [1], 13 µM in test [2] and more than 30 µM in test [3].

As for `CCOC(=O)c1ccc(N)cc1` [BENZOCAINE], the results for the AC50 in test [1], in test [2] and in test [3] were more than 10 µM, more than 10 µM and more than 30 µM, respectively.

In the case of `CN(C)CCCN1c2ccccc2CCc2ccccc21` [IMIPRAMINE], the concentration at half-maximal activity (AC50) in test [1] was more than 10 µM.

Turning to `CN[C@@H](C)[C@@H](O)c1ccccc1` [PSEUDOEPHEDRINE], the AC50 in test [1] is more than 10 µM; in test [2], more than 10 µM; in test [3], more than 30 µM.

Consider `CCC[C@@H]1C[C@@H](C(=O)N[C@@H]([C@H]2O[C@H](SC)[C@H](O)[C@@H](O)[C@H]2O)[C@@H](C)O)N(C)C1` [LINCOMYCIN], for which the concentration at half-maximal activity (AC50) in test [1] was more than 30 µM; in test [2] it was more than 10 µM; in test [3], more than 30 µM.

For `O=C1OC(OC(=O)c2cccnc2Nc2cccc(C(F)(F)F)c2)c2ccccc21` (stereo not drawn) [TALNIFLUMATE], the AC50 in test [1], in test [2] and in test [3] was more than 30 µM throughout.

For the compound `C/C=C(/C(=C/C)c1ccc(O)cc1)c1ccc(O)cc1` [DIENESTROL], the AC50 is more than 10 µM in test [1], more than 10 µM in test [2] and more than 30 µM in test [3].

Consider `Cc1ccccc1-n1c(CF)nc2ccc(N)cc2c1=O` [AFLOQUALONE], for which the AC50 in test [1] is more than 10 µM; in test [2], more than 10 µM; in test [3], more than 30 µM.

Take `O=C(O)c1cccnc1Nc1cccc(C(F)(F)F)c1` [NIFLUMIC ACID]: the figures for the half-maximal activity concentration (AC50) in test [1], in test [2] and in test [3] were more than 10 µM, more than 10 µM and more than 30 µM, respectively.

In the case of `CN(C)Cc1nnc2n1-c1ccc(Cl)cc1C(c1ccccc1)=NC2` [ADINAZOLAM], the AC50 in test [1] was more than 10 µM; in test [2], 3.29 µM; in test [3], more than 30 µM.

In the case of `CCOC(=O)C1=C(C)NC(C)=C(C(=O)OCC)C1c1ccccc1/C=C/C(=O)OC(C)(C)C` [LACIDIPINE], the AC50 in test [1] is more than 30 µM; in test [2], 8.6 µM; in test [3] it was 17.8 µM.

In the case of `CN(C)C/C=C/C(=O)Nc1cc2c(Nc3ccc(F)c(Cl)c3)ncnc2cc1O[C@H]1CCOC1` [AFATINIB], the half-maximal activity concentration (AC50) in test [1] and in test [2] was more than 30 µM in each case.

Consider `CC(Cc1cccc(C(F)(F)F)c1)NCCOC(=O)c1ccccc1` (stereo not drawn) [BENFLUOREX], for which the figures for the AC50 in test [1], in test [2] and in test [3] were more than 30 µM, more than 30 µM and 5.6 µM, respectively.

Regarding `CNCCc1ccc(OC(=O)C(C)C)c(OC(=O)C(C)C)c1` [IBOPAMINE], the values for the AC50 in test [1], in test [2] and in test [3] were 3.48 µM, more than 30 µM and more than 30 µM, respectively.

(Values after ChEMBL document CHEMBL5291721, “A preclinical secondary pharmacology resource illuminates target-adverse drug reaction associations of marketed drugs” (Nat Commun, 2023).)
